BigSolDB 2.1

O=S(=O)(c1ccc(O)cc1)c1ccccc1O
solubility (mole fraction)
Details | in 1,4-dioxane | in 2-butanone | in acetone | in acetonitrile | in ethanol | in ethyl acetate | in isopropanol | in methanol | in n-butanol
278.15 K | 0.0184 | 0.101 | 0.106 | 0.00974 | 0.0655 | 0.0386 | 0.0656 | 0.0569 | 0.0571
280.65 K | 0.0213 | 0.103 | 0.108 | 0.0109 | 0.0672 | 0.0402 | 0.068 | 0.0583 | 0.0584
283.15 K | 0.0242 | 0.105 | 0.11 | 0.0121 | 0.0689 | 0.0415 | 0.0708 | 0.0597 | 0.0597
285.65 K | 0.0272 | 0.107 | 0.112 | 0.0132 | 0.0706 | 0.0432 | 0.074 | 0.0612 | 0.0609
288.15 K | 0.0303 | 0.109 | 0.115 | 0.0144 | 0.0725 | 0.0449 | 0.0767 | 0.0627 | 0.0621
290.65 K | 0.0338 | 0.111 | 0.117 | 0.0156 | 0.0746 | 0.0465 | 0.0798 | 0.0643 | 0.0634
293.15 K | 0.0376 | 0.113 | 0.12 | 0.0169 | 0.0766 | 0.0482 | 0.0825 | 0.0661 | 0.0645
295.65 K | 0.0415 | 0.115 | 0.124 | 0.0179 | 0.0785 | 0.0501 | 0.0857 | 0.0677 | 0.0658
298.15 K | 0.0465 | 0.118 | 0.127 | 0.0192 | 0.0805 | 0.052 | 0.089 | 0.0696 | 0.0671
300.65 K | 0.0514 | 0.12 | 0.13 | 0.0204 | 0.0827 | 0.054 | 0.0925 | 0.0716 | 0.0682
303.15 K | 0.0557 | 0.122 | 0.133 | 0.0219 | 0.085 | 0.0562 | 0.0963 | 0.0739 | 0.0694
305.65 K | 0.0611 | 0.125 | 0.136 | 0.0236 | 0.0872 | 0.0585 | 0.1 | 0.0763 | 0.0707
308.15 K | 0.0664 | 0.127 | 0.139 | 0.0252 | 0.0898 | 0.0609 | 0.104 | 0.0786 | 0.0719
310.65 K | 0.0713 | 0.13 | 0.142 | 0.0271 | 0.0928 | 0.0637 | 0.109 | 0.0809 | 0.0734
313.15 K | 0.077 | 0.134 | 0.146 | 0.0295 | 0.0957 | 0.0669 | 0.113 | 0.0838 | 0.0751
